Paper PMC12691611, “Aromatic residue Trp146 mediates dynamic interplay between type IVa pili and exopolysaccharide in social motility of Myxococcus xanthus” (mBio, 2025)
Entries after “also recorded” stand apart in the source; their conditions may differ.

What was measured:
[1] = target: T1, PilACt (truncated PilA, residues 32–208) (Myxococcus xanthus, UniProt Q59589); test: Surface plasmon resonance (SPR, Biacore T200), carbohydrates over immobilized PilACt; format: binding; details: for Kd: KD (SPR, PilACt)
T1 construct: a truncated variant (PilACt) spanning residues 32–208; His tag; made in house; host or cells: E. coli BL21 (DE3)
Text: We therefore employed surface plasmon resonance (SPR) on a Biacore system to quantitatively evaluate EPS-PilA binding ([48]), using immobilized PilACt as the ligand. […] Due to the insoluble nature of I-EPS and the risk of clogging the microfluidic channels, it was excluded from further SPR analyses.
(§1) ITC power compensation analyses ([50]) confirmed negligible enthalpy changes during titrations, ruling out nonspecific binding events (Fig. S3B and S4B). […] Given the presence of ManNAc in M. xanthus EPS, we further analyzed its deacetylated derivative, mannosamine (ManN).
The binding affinity of carbohydrates to PilACt and its mutants was determined by SPR measurements at 25°C using Biacore T200 (Cytiva, USA) in PBS buffer. The purified PilACt or its mutants (10 µg/mL in 10 mM sodium acetate, pH 4.5) were immobilized on the CM5 chips (Cytiva, USA) via amine coupling. Unreacted sites were blocked with 1.0 M ethanolamine-HCl (pH 8.5). Flow path 1 or path 3 was used as an activated blank control for subtraction. In all interaction experiments, analytes were injected at a flow rate of 30 µL/min for 180 s, with gradient concentrations programmed from low to high. After injection, dissociation was allowed to occur with the buffer flow for 300 s to facilitate chip regeneration. The resulting curves were corrected and fitted to the steady-state model using Biacore evaluation software (version 3.0, Cytiva, USA) to determine the dissociation constant (KD) values.

PilACt = target: T2, PilACt (Myxococcus xanthus, UniProt Q59589); test: Isothermal titration calorimetry (ITC), carbohydrates titrated into PilACt; format: binding
T2 construct: a truncated variant (PilACt) spanning residues 32–208; His tag; made in house; host or cells: E. coli BL21 (DE3)
Description: as §1
The calorimetric data for the binding of PilACt and its mutants to carbohydrates were measured at 25°C using a MicroCal PEAQ-ITC system (Malvern Instruments, United Kingdom). The carbohydrates, PilACt, and its mutants were dissolved in the PBS buffer. A 300 µL aliquot of protein solution was placed in the sample cell, followed by 19 sequential 2 µL injections of carbohydrates from a syringe stock solution into the sample cell. The injection interval was 150 s, and the agitation speed was set at 750 rpm. A control titration, in which carbohydrates were injected into PBS buffer under the same conditions, was performed to measure the heat of mixing and dilutions, which was then subtracted from the titration results involving the protein. Raw data were imported into MicroCal PEAQ-ITC analysis software (Version 1.1.01262) and corrected by subtracting the equivalent dilution heats of control titration. Integration of the area under each, along with deduction of the heat of dilution, yielded a thermogram of the molecular interaction between carbohydrates and PilACt or its mutants.

PilACt-W146A = target: T3, PilACt-W146A (Myxococcus xanthus, UniProt Q59589, W146A); test: SPR, carbohydrates over immobilized PilACt-W146A; format: binding; details: 25°C, PBS
T3 construct: a truncated variant (PilACt) spanning residues 32–208; His tag; made in house; host or cells: E. coli BL21 (DE3)
Text: (§2) To functionally validate the role of W146, a W146A substitution mutant (PilA-W146A) was generated through AlphaFold2-based structural modeling of PilA (Fig. 4A). Structural alignment confirmed the mutant retained a tertiary structure indistinguishable from wild-type PilA (WT PilA; Fig. 4B), indicating the W146A substitution caused no global structural perturbations. […] However, the mutation induced localized instability, manifested by premature GlcN dissociation (4 ns) and excessive ligand RMSD fluctuations (>6 nm; Fig. 4C and D; Movie S4). […] To quantify binding effects, a single-residue PilACt variant (PilACt-W146A) was analyzed for EPS/GlcN affinity. […] To assess broader aromatic residue contributions, four additional PilA aromatic residues (Y69, W181, F164, and F186) were individually substituted with alanine. The PilACt-F164A mutant underwent intracellular degradation, likely due to structural instability, precluding heterologous expression.
The binding affinity of carbohydrates to PilACt and its mutants was determined by SPR measurements at 25°C using Biacore T200 (Cytiva, USA) in PBS buffer. The purified PilACt or its mutants (10 µg/mL in 10 mM sodium acetate, pH 4.5) were immobilized on the CM5 chips (Cytiva, USA) via amine coupling. Unreacted sites were blocked with 1.0 M ethanolamine-HCl (pH 8.5). Flow path 1 or path 3 was used as an activated blank control for subtraction. […]

PilACt-Y69A = target: T4, PilACt-Y69A (Myxococcus xanthus, UniProt Q59589, Y69A); test: SPR, carbohydrates over immobilized PilACt-Y69A; format: binding
T4 construct: a truncated variant (PilACt) spanning residues 32–208; His tag; made in house; host or cells: E. coli BL21 (DE3)
Text: as §2
(§3) The binding affinity of carbohydrates to PilACt and its mutants was determined by SPR measurements at 25°C using Biacore T200 (Cytiva, USA) in PBS buffer. […]
(§4) Fig S11. […] The binding affinity of single-residue variants PilACt-Y69A, PilACt-W181A, and PilACt-F186A to S-EPS (A) and GlcN (B) was evaluated by SPR analysis. Representative sensorgram and calculated KD values are shown. […]

PilACt-W181A = target: T5, PilACt-W181A (Myxococcus xanthus, UniProt Q59589, W181A); test: SPR, carbohydrates over immobilized PilACt-W181A; format: binding
T5 construct: a truncated variant (PilACt) spanning residues 32–208; His tag; made in house; host or cells: E. coli BL21 (DE3)
Text: as §2, §3, §4

PilACt-F186A = target: T6, PilACt-F186A (Myxococcus xanthus, UniProt Q59589, F186A); test: SPR, carbohydrates over immobilized PilACt-F186A; format: binding
T6 construct: a truncated variant (PilACt) spanning residues 32–208; His tag; made in house; host or cells: E. coli (BL21 (DE3) is named only for the other PilACt variants)
Text: as §2, §3, §4

[2] = Zeta potential measurement; format: physicochemical
Description: GlcN and PilACt were diluted in PBS buffer, and the solutions were adjusted to a suitable pH (6, 7.6, and 9) using either HCl or NaOH. The zeta (ζ) potential of GlcN (0.5 mg/mL) and PilACt (1 mg/mL) solutions was measured using UV-grade cuvettes with a Zetasizer NanoZS90 (Malvern Instruments, United Kingdom). For each measurement, 1 mL of the sample was injected into a folded capillary cell. All experiments were conducted in triplicate.

M. xanthus DK1622 cells = system: M. xanthus DK1622 cells; design: method as in PMID 12704238; details: DK1622 cells ref 15; cited from earlier work
[3] = amine group of GlcN; no reference given; cited from earlier work

T2 sequence (Q59589 44-220): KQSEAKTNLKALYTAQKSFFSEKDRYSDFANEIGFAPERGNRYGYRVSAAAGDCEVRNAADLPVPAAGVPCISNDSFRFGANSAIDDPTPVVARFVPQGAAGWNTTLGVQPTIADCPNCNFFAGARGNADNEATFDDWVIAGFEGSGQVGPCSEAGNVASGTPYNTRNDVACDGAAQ
T1 sequence (Q59589 44-220): as above
T3 sequence (Q59589 44-220 W146A): as the sequence (Q59589 44-220) above, with W103A counted along it
T5 sequence (Q59589 44-220 W181A): as the sequence (Q59589 44-220) above, with W138A counted along it
T4 sequence (Q59589 44-220 Y69A): as the sequence (Q59589 44-220) above, with Y26A counted along it
T6 sequence (Q59589 44-220 F186A): as the sequence (Q59589 44-220) above, with F143A counted along it

SMILES | Kd ([1]; pH 9) [µM] | Kd ([1]; steady-state fit, 25°C, PBS buffer, pH 7.6) [µM] | Kd (PilACt) [µM] | stoichiometry n (ITC) (PilACt; 25°C, PBS, pH 7.6) | binding to PilACt-W146A by SPR (PilACt-W146A) | binding affinity relative to WT PilACt (SPR) (PilACt-Y69A) | binding affinity relative to WT PilACt (SPR) (PilACt-W181A) | binding affinity relative to WT PilACt (SPR) (PilACt-F186A) | zeta potential ([2]; pH 6, PBS) | zeta potential ([2]; pH 7.6, PBS) [mV] | piliation phenotype (surface pili) (M. xanthus DK1622 cells) | pKa [3] | binding to PilACt by SPR ([1]; tested concentrations 31.25–1,000 µM) | binding to PilACt by ITC (PilACt; 25°C, PBS)
N[C@H]1C(O)O[C@H](CO)[C@@H](O)[C@@H]1O (stereo partly drawn) [GlcN, glucosamine] | 87 | 203 | 300 | 1.47 | undetectable; also recorded: No binding | indistinguishable from WT | indistinguishable from WT | indistinguishable from WT | +2.43 mV | 1.09 | hyperpiliation | ~ 7.58 |  | 
CC(=O)N[C@@H]1[C@@H](O)[C@H](O)[C@@H](CO)O[C@H]1O [GlcNAc, N-acetyl-glucosamine] |  |  |  |  |  |  |  |  |  |  | hyperpiliation |  | undetectable | undetectable
